Measurements: article PMC12454493, “Insight on novel sulfamoylphenyl pyrazole derivatives as anticancer carbonic anhydrase inhibitors” (Molecular Diversity, 2024)
Several values for one entry are separate records, joined by “and”; a condition that tells them apart may be missing. Equal values may be shown once.

Legend:
RPMI-8226 = assay: NCI-60 one-dose SRB screen (Leukemia); format: cell-based; conditions: Homo sapiens, single dose 10 µM, 48 h, read-out: Growth inhibition percent (GI %)
SR = assay: NCI-60 one-dose SRB screen (Leukemia); format: cell-based; conditions: Homo sapiens, single dose 10 µM, 48 h, read-out: Growth inhibition percent (GI %)
K-562 = assay: NCI-60 one-dose SRB screen (Leukemia); format: cell-based; conditions: Homo sapiens, K562, single dose 10 µM, 48 h, read-out: Growth inhibition percent (GI %)
MOLT-4 = assay: NCI-60 one-dose SRB screen (Leukemia); format: cell-based; conditions: Homo sapiens, single dose 10 µM, 48 h, read-out: Growth inhibition percent (GI %)
HL-60(TB) = assay: NCI-60 one-dose SRB screen (Leukemia); format: cell-based; conditions: Homo sapiens, single dose 10 µM, 48 h, read-out: Growth inhibition percent (GI %)
CCRF-CEM = assay: NCI-60 one-dose SRB screen (Leukemia); format: cell-based; conditions: Homo sapiens, single dose 10 µM, 48 h, read-out: Growth inhibition percent (GI %)
OVCAR-3 = assay: NCI-60 one-dose SRB screen (Ovarian cancer); format: cell-based; conditions: Homo sapiens, single dose 10 µM, 48 h, read-out: Growth inhibition percent (GI %)
OVCAR-5 = assay: NCI-60 one-dose SRB screen (Ovarian cancer); format: cell-based; conditions: Homo sapiens, single dose 10 µM, 48 h, read-out: Growth inhibition percent (GI %)
OVCAR-4 = assay: NCI-60 one-dose SRB screen (Ovarian cancer); format: cell-based; conditions: Homo sapiens, single dose 10 µM, 48 h, read-out: Growth inhibition percent (GI %)
SK-OV-3 = assay: NCI-60 one-dose SRB screen (Ovarian cancer); format: cell-based; conditions: Homo sapiens, single dose 10 µM, 48 h, read-out: Growth inhibition percent (GI %)
NCI/ADR-RES = assay: NCI-60 one-dose SRB screen (Ovarian cancer); format: cell-based; conditions: Homo sapiens, single dose 10 µM, 48 h, read-out: Growth inhibition percent (GI %)
OVCAR-8 = assay: NCI-60 one-dose SRB screen (Ovarian cancer); format: cell-based; conditions: Homo sapiens, single dose 10 µM, 48 h, read-out: Growth inhibition percent (GI %)
IGROV1 = assay: NCI-60 one-dose SRB screen (Ovarian cancer); format: cell-based; conditions: Homo sapiens, IGROV-1, single dose 10 µM, 48 h, read-out: Growth inhibition percent (GI %)
PC-3 = assay: NCI-60 one-dose SRB screen (Prostate Cancer); format: cell-based; conditions: Homo sapiens, single dose 10 µM, 48 h, read-out: Growth inhibition percent (GI %)
DU-145 = assay: NCI-60 one-dose SRB screen (Prostate Cancer); format: cell-based; conditions: Homo sapiens, single dose 10 µM, 48 h, read-out: Growth inhibition percent (GI %)
hCA IX = hCA IX (Homo sapiens, UniProt Q16790); assay: CA inhibitory activity, spectrophotometric p-NPA assay; format: biochemical; conditions: p-NPA substrate, pH 7.5, 25 °C, triplicate; read-out: IC50 (µM) ± SD hCA IX
Method: The software used to calculate CA IC50 along with statistical analysis of the results is GraphPad Prism 9.00. Results were estimated by using one-way ANOVA and the Bonferroni’s multiple comparisons posthoc test was performed (P < 0.05) [46]
Carbonic anhydrase inhibitory activity:
The spectrophotometric assay was conducted in HEPES-Tris buffer, NaCl of pH 7.5 (20mM) at 25◦C. Each inhibitory well-consisted of 50 μL of assay buffer solution, 20 μL of hCA enzyme solution (20 ng/μL in Assay Buffer), and 50 μL of test compound in HPLC grade DMSO (maintain 10% of the final concentration). The mixture solution was
Substrate p-nitrophenyl acetate (p-NPA) (0.7mM) was prepared in HPLC grade methanol and the reaction was started by adding 20 μL to a well in a 96-well-plate. The amount of product formed was measured for 30 min continuously at 1 min intervals at 400 nm in a 96-well-plate using xMARK microplate spectrophotometer, Bio-Rad (USA). The activity of the controlled compound was taken as 100%. All experiments were carried out in triplicates of each used concentration, and results are represented as a

NCI-H522 = assay: NCI-60 one-dose SRB screen (Non-Small Cell Lung Cancer); format: cell-based; conditions: Homo sapiens, single dose 10 µM, 48 h, read-out: Growth inhibition percent (GI %)
A549/ATCC = assay: as above; format: cell-based; conditions: Homo sapiens, single dose 10 µM, 48 h, read-out: Growth inhibition percent (GI %)
HOP-62 = assay: as above; format: cell-based; conditions: Homo sapiens, single dose 10 µM, 48 h, read-out: Growth inhibition percent (GI %)
HOP-92 = assay: as above; format: cell-based; conditions: Homo sapiens, single dose 10 µM, 48 h, read-out: Growth inhibition percent (GI %)
EKVX = assay: as above; format: cell-based; conditions: Homo sapiens, single dose 10 µM, 48 h, read-out: Growth inhibition percent (GI %)
NCI-H226 = assay: as above; format: cell-based; conditions: Homo sapiens, single dose 10 µM, 48 h, read-out: Growth inhibition percent (GI %)
NCI-H460 = assay: as above; format: cell-based; conditions: Homo sapiens, single dose 10 µM, 48 h, read-out: Growth inhibition percent (GI %)
NCI-H23 = assay: as above; format: cell-based; conditions: Homo sapiens, single dose 10 µM, 48 h, read-out: Growth inhibition percent (GI %)
NCI-H322M = assay: as above; format: cell-based; conditions: Homo sapiens, single dose 10 µM, 48 h, read-out: Growth inhibition percent (GI %)
HT29 = assay: NCI-60 one-dose SRB screen (Colon Cancer); format: cell-based; conditions: Homo sapiens, HT-29, single dose 10 µM, 48 h, read-out: Growth inhibition percent (GI %)
COLO 205 = assay: NCI-60 one-dose SRB screen (Colon Cancer); format: cell-based; conditions: Homo sapiens, single dose 10 µM, 48 h, read-out: Growth inhibition percent (GI %)
HCT-116 = assay: NCI-60 one-dose SRB screen (Colon Cancer); format: cell-based; conditions: Homo sapiens, single dose 10 µM, 48 h, read-out: Growth inhibition percent (GI %)
SW-620 = assay: NCI-60 one-dose SRB screen (Colon Cancer); format: cell-based; conditions: Homo sapiens, single dose 10 µM, 48 h, read-out: Growth inhibition percent (GI %)
KM12 = assay: NCI-60 one-dose SRB screen (Colon Cancer); format: cell-based; conditions: Homo sapiens, single dose 10 µM, 48 h, read-out: Growth inhibition percent (GI %)
HCC-2998 = assay: NCI-60 one-dose SRB screen (Colon Cancer); format: cell-based; conditions: Homo sapiens, single dose 10 µM, 48 h, read-out: Growth inhibition percent (GI %)
HCT-15 = assay: NCI-60 one-dose SRB screen (Colon Cancer); format: cell-based; conditions: Homo sapiens, single dose 10 µM, 48 h, read-out: Growth inhibition percent (GI %)
UACC-257 = assay: NCI-60 one-dose SRB screen (Melanoma); format: cell-based; conditions: Homo sapiens, single dose 10 µM, 48 h, read-out: Growth inhibition percent (GI %)
MALME-3M = assay: NCI-60 one-dose SRB screen (Melanoma); format: cell-based; conditions: Homo sapiens, single dose 10 µM, 48 h, read-out: Growth inhibition percent (GI %)
UACC-62 = assay: NCI-60 one-dose SRB screen (Melanoma); format: cell-based; conditions: Homo sapiens, single dose 10 µM, 48 h, read-out: Growth inhibition percent (GI %)
MDA-MB-435 = assay: NCI-60 one-dose SRB screen (Melanoma); format: cell-based; conditions: Homo sapiens, single dose 10 µM, 48 h, read-out: Growth inhibition percent (GI %)
LOX IMVI = assay: NCI-60 one-dose SRB screen (Melanoma); format: cell-based; conditions: Homo sapiens, single dose 10 µM, 48 h, read-out: Growth inhibition percent (GI %)
SK-MEL-2 = assay: NCI-60 one-dose SRB screen (Melanoma); format: cell-based; conditions: Homo sapiens, single dose 10 µM, 48 h, read-out: Growth inhibition percent (GI %)
SK-MEL-28 = assay: NCI-60 one-dose SRB screen (Melanoma); format: cell-based; conditions: Homo sapiens, single dose 10 µM, 48 h, read-out: Growth inhibition percent (GI %)
SK-MEL-5 = assay: NCI-60 one-dose SRB screen (Melanoma); format: cell-based; conditions: Homo sapiens, single dose 10 µM, 48 h, read-out: Growth inhibition percent (GI %)
M14 = assay: NCI-60 one-dose SRB screen (Melanoma); format: cell-based; conditions: Homo sapiens, single dose 10 µM, 48 h, read-out: Growth inhibition percent (GI %)
MCF-7 = assay: NCI-60 one-dose SRB screen (Breast Cancer); format: cell-based; conditions: Homo sapiens, MCF7, single dose 10 µM, 48 h, read-out: Growth inhibition percent (GI %)
MDA-MB-231/ATCC = assay: NCI-60 one-dose SRB screen (Breast Cancer); format: cell-based; conditions: Homo sapiens, single dose 10 µM, 48 h, read-out: Growth inhibition percent (GI %)
HS 578T = assay: NCI-60 one-dose SRB screen (Breast Cancer); format: cell-based; conditions: Homo sapiens, single dose 10 µM, 48 h, read-out: Growth inhibition percent (GI %)
T-47D = assay: NCI-60 one-dose SRB screen (Breast Cancer); format: cell-based; conditions: Homo sapiens, T47D, single dose 10 µM, 48 h, read-out: Growth inhibition percent (GI %)

Cc1ccc(-c2nn(-c3ccc(S(N)(=O)=O)cc3)cc2C(=O)NNC(N)=S)cc1 [Compound 9b, 2-[1-(4-Sulfamoylphenyl)-3-(p-tolyl)-1H-pyrazole-4-carbonyl] hydrazine-1-carbothioamide]
178 to 180 °C: melting point
5.9%: inhibition at 10 µM (UACC-62)
0.33 µM and 0.339 µM: IC50 (hCA IX)
< 5%: inhibition at 10 µM (RPMI-8226) | inhibition at 10 µM (SR) | inhibition at 10 µM (K-562) | inhibition at 10 µM (MOLT-4) | inhibition at 10 µM (HL-60(TB)) | inhibition at 10 µM (OVCAR-3) | inhibition at 10 µM (OVCAR-5) | inhibition at 10 µM (OVCAR-4) | inhibition at 10 µM (SK-OV-3) | inhibition at 10 µM (NCI/ADR-RES) | inhibition at 10 µM (OVCAR-8) | inhibition at 10 µM (IGROV1) | inhibition at 10 µM (PC-3) | inhibition at 10 µM (DU-145) | inhibition at 10 µM (NCI-H522) | inhibition at 10 µM (A549/ATCC) | inhibition at 10 µM (HOP-62) | inhibition at 10 µM (HOP-92) | inhibition at 10 µM (EKVX) | inhibition at 10 µM (NCI-H226) | inhibition at 10 µM (NCI-H460) | inhibition at 10 µM (NCI-H23) | inhibition at 10 µM (NCI-H322M) | inhibition at 10 µM (HT29) | inhibition at 10 µM (COLO 205) | inhibition at 10 µM (HCT-116) | inhibition at 10 µM (SW-620) | inhibition at 10 µM (KM12) | inhibition at 10 µM (HCC-2998) | inhibition at 10 µM (HCT-15) | inhibition at 10 µM (UACC-257) | inhibition at 10 µM (MALME-3M) | inhibition at 10 µM (MDA-MB-435) | inhibition at 10 µM (LOX IMVI) | inhibition at 10 µM (SK-MEL-2) | inhibition at 10 µM (SK-MEL-28) | inhibition at 10 µM (SK-MEL-5) | inhibition at 10 µM (M14) | inhibition at 10 µM (MCF-7) | inhibition at 10 µM (MDA-MB-231/ATCC) | inhibition at 10 µM (HS 578T) | inhibition at 10 µM (T-47D)
19.6%: inhibition at 10 µM (CCRF-CEM)
